This note sets out measurements from patent publication US9499550B2 (BRISTOL-MYERS SQUIBB COMPANY, priority 2012, dated 2016).

Like-named read-outs stand apart in the source and are kept apart here.

In assay [1] the test system is HCV genotype 1b (Con1) replicon in HUH-7 cells. The assay is described as follows: HCV replicon luciferase reporter assay, genotype 1b. The note with it: Hepatitis C virus, Huh-7, 72 h, HCV genotype 1b replicon luciferase, 3 days incubation. The class given is cell-based. The procedure, abridged: (§1)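 Replicon inhibition for both genotypes was measured as Renilla luciferase signal (EnduRen, 7.5 μM final, 2 h) after 3-day, 37° C exposure of replicon-bearing HUH-7 cells in 4% FCS DMEM, 0.5% DMSO. The 1b construct carries S1179I; the 1a H77 construct carries P1496L and S2204I. Twenty-point, 3-fold dilutions were fitted four-parametrically for EC50, and CC50 was taken from multiplexed Cell Titer-Blue.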

Assay [2] relates to HCV genotype 1a (H77 strain) replicon in HUH-7 cells. Description: HCV replicon luciferase reporter assay, genotype 1a. The class given is cell-based. The note with it: Hepatitis C virus, Huh-7, 72 h, HCV genotype 1a replicon luciferase, 3 days incubation. The gist of the method:
as §1

On to `CC[C@@H]1C[C@H](C)CC/C=C\[C@@H]2C[C@@]2(C(=O)NS(=O)(=O)C2(C)CC2)NC(=O)[C@@H]2C[C@@H](Oc3nccc4cc(OC)ccc34)CN2C(=O)[C@H]1NC(=O)OC(C)(C)C(F)F` [Compound 5523, 1,1-difluoro-2-methylpropan-2-yl((2R,6S,7R,9R,13aS,14aR,16aS,Z)-7-ethyl-2-((6-methoxyisoquinolin-1-yl)oxy)-9-methyl-14a-(((1-methylcyclopropyl)sulfonyl)carbamoyl)-5,16-dioxo-1,2,3,5,6,7,8,9,10,11,13a,14,14a,15,16,16a-hexadecahydrocyclopropa[e]pyrrolo[1,2-a][1,4]diazacyclopentadecin-6-yl)carbamate], for which the concentration for a half-maximal effect (EC50) in assay [1] (read-out: LE_1b (EC50, range)) lay in the range of 0.51 to 1 nM; in assay [2] (read-out: LE_1a (EC50, range)) it was 1.01 to 5 nM.
Take `CCOc1cc2ccnc(O[C@@H]3C[C@H]4C(=O)N[C@]5(C(=O)NS(=O)(=O)C6(C)CC6)C[C@H]5/C=C\CC[C@@H](C)C[C@@H](CC)[C@H](NC(=O)OC(C)(C)C(F)F)C(=O)N4C3)c2cc1F` [Compound 5525, 1,1-difluoro-2-methylpropan-2-yl((2R,6S,7R,9R,13aS,14aR,16aS,Z)-2-((6-ethoxy-7-fluoroisoquinolin-1-yl)oxy)-7-ethyl-9-methyl-14a-(((1-methylcyclopropyl)sulfonyl)carbamoyl)-5,16-dioxo-1,2,3,5,6,7,8,9,10,11,13a,14,14a,15,16,16a-hexadecahydrocyclopropa[e]pyrrolo[1,2-a][1,4]diazacyclopentadecin-6-yl)carbamate]: the EC50 in assay [1] (read-out: LE_1b (EC50, range)) was 0.51 to 1 nM; in assay [2] (read-out: LE_1a (EC50, range)), 1.01 to 5 nM.
The like results for `CC[C@@H]1C[C@H](C)CC/C=C\[C@@H]2C[C@@]2(C(=O)NS(=O)(=O)C2(C)CC2)NC(=O)[C@@H]2C[C@@H](Oc3nccc4cc(OC)c(F)cc34)CN2C(=O)[C@H]1NC(=O)OC(C)(C)C(F)F` [Compound 5527, 1,1-difluoro-2-methylpropan-2-yl((2R,6S,7R,9R,13aS,14aR,16aS,Z)-7-ethyl-2-((7-fluoro-6-methoxyisoquinolin-1-yl)oxy)-9-methyl-14a-(((1-methylcyclopropyl)sulfonyl)carbamoyl)-5,16-dioxo-1,2,3,5,6,7,8,9,10,11,13a,14,14a,15,16,16a-hexadecahydrocyclopropa[e]pyrrolo[1,2-a][1,4]diazacyclopentadecin-6-yl)carbamate] were, in that order, 0.51 to 1 nM and 1.01 to 5 nM.
For `CC[C@@H]1C[C@H](C)CC/C=C\[C@@H]2C[C@@]2(C(=O)NS(=O)(=O)C2(C)CC2)NC(=O)[C@@H]2C[C@@H](Oc3ncc(OC)c4ccc(F)cc34)CN2C(=O)[C@H]1NC(=O)OC(C)(C)C(F)F` [Compound 5529, 1,1-difluoro-2-methylpropan-2-yl((2R,6S,7R,9R,13aS,14aR,16aS,Z)-7-ethyl-2-((7-fluoro-4-methoxyisoquinolin-1-yl)oxy)-9-methyl-14a-(((1-methylcyclopropyl)sulfonyl)carbamoyl)-5,16-dioxo-1,2,3,5,6,7,8,9,10,11,13a,14,14a,15,16,16a-hexadecahydrocyclopropa[e]pyrrolo[1,2-a][1,4]diazacyclopentadecin-6-yl)carbamate] the same measures were 0.1 to 0.5 nM and 1.01 to 5 nM.
Turning to `CCOc1cnc(O[C@@H]2C[C@H]3C(=O)N[C@]4(C(=O)NS(=O)(=O)C5(C)CC5)C[C@H]4/C=C\CC[C@@H](C)C[C@@H](CC)[C@H](NC(=O)OC(C)(C)C(F)F)C(=O)N3C2)c2ccccc12` [Compound 5531, 1,1-difluoro-2-methylpropan-2-yl((2R,6S,7R,9R,13aS,14aR,16aS,Z)-2-((4-ethoxyisoquinolin-1-yl)oxy)-7-ethyl-9-methyl-14a-(((1-methylcyclopropyl)sulfonyl)carbamoyl)-5,16-dioxo-1,2,3,5,6,7,8,9,10,11,13a,14,14a,15,16,16a-hexadecahydrocyclopropa[e]pyrrolo[1,2-a][1,4]diazacyclopentadecin-6-yl)carbamate], the EC50 in assay [1] (read-out: LE_1b (EC50, range)) is 0.51 to 1 nM; in assay [2] (read-out: LE_1a (EC50, range)) it was 1.01 to 5 nM.
For the molecule `CC[C@@H]1C[C@H](C)CC/C=C\[C@@H]2C[C@@]2(C(=O)NS(=O)(=O)C2(C)CC2)NC(=O)[C@@H]2C[C@@H](Oc3ncc(OC)c4ccccc34)CN2C(=O)[C@H]1NC(=O)OC(C)(C)C(F)F` [Compound 5533, 1,1-difluoro-2-methylpropan-2-yl((2R,6S,7R,9R,13aS,14aR,16aS,Z)-7-ethyl-2-((4-methoxyisoquinolin-1-yl)oxy)-9-methyl-14a-(((1-methylcyclopropyl)sulfonyl)carbamoyl)-5,16-dioxo-1,2,3,5,6,7,8,9,10,11,13a,14,14a,15,16,16a-hexadecahydrocyclopropa[e]pyrrolo[1,2-a][1,4]diazacyclopentadecin-6-yl)carbamate], the concentration giving a half-maximal response (EC50) in assay [1] (read-out: LE_1b (EC50, range)) lay in the range of 0.1 to 0.5 nM; in assay [2] (read-out: LE_1a (EC50, range)), 1.01 to 5 nM.
For `CC[C@@H]1C[C@H](C)CC/C=C\[C@@H]2C[C@@]2(C(=O)NS(=O)(=O)C2(C)CC2)NC(=O)[C@@H]2C[C@@H](Oc3nccc4c5c(ccc34)OCCO5)CN2C(=O)[C@H]1NC(=O)OC(C)(C)C(F)F` [Compound 5535, 1,1-difluoro-2-methylpropan-2-yl((2R,6S,7R,9R,13aS,14aR,16aS,Z)-2-((2,3-dihydro-[1,4]dioxino[2,3-f]isoquinolin-7-yl)oxy)-7-ethyl-9-methyl-14a-(((1-methylcyclopropyl)sulfonyl)carbamoyl)-5,16-dioxo-1,2,3,5,6,7,8,9,10,11,13a,14,14a,15,16,16a-hexadecahydrocyclopropa[e]pyrrolo[1,2-a][1,4]diazacyclopentadecin-6-yl)carbamate] the same measures were 1.01 to 5 nM and 5.01 to 35 nM.
The like results for `CC[C@@H]1C[C@H](C)CC/C=C\[C@@H]2C[C@@]2(C(=O)NS(=O)(=O)C2CC2)NC(=O)[C@@H]2C[C@@H](Oc3ncc(OC)c4ccccc34)CN2C(=O)[C@H]1NC(=O)OC(C)(C)C(F)F` [Compound 5537, 1,1-difluoro-2-methylpropan-2-yl((2R,6S,7R,9R,13aS,14aR,16aS,Z)-14a-((cyclopropylsulfonyl)carbamoyl)-7-ethyl-2-((4-methoxyisoquinolin-1-yl)oxy)-9-methyl-5,16-dioxo-1,2,3,5,6,7,8,9,10,11,13a,14,14a,15,16,16a-hexadecahydrocyclopropa[e]pyrrolo[1,2-a][1,4]diazacyclopentadecin-6-yl)carbamate] were, in that order, 0.1 to 0.5 nM and 0.51 to 1 nM.
The like results for `CC[C@@H]1C[C@H](C)CC/C=C\[C@@H]2C[C@@]2(C(=O)NS(=O)(=O)C2CC2)NC(=O)[C@@H]2C[C@@H](Oc3nc(OC)cc4ccccc34)CN2C(=O)[C@H]1NC(=O)OC(C)(C)C` [Compound 6001, tert-butyl ((2R,6S,7R,9R,13aS,14aR,16aS,Z)-14a-((cyclopropylsulfonyl)carbamoyl)-7-ethyl-2-((3-methoxyisoquinolin-1-yl)oxy)-9-methyl-5,16-dioxo-1,2,3,5,6,7,8,9,10,11,13a,14,14a,15,16,16a-hexadecahydrocyclopropa[e]pyrrolo[1,2-a][1,4]diazacyclopentadecin-6-yl)carbamate] were, in that order, < 5.46 nM and < 5.46 nM.
For `CC[C@@H]1C[C@@H](C)CC/C=C\[C@@H]2C[C@@]2(C(=O)NS(=O)(=O)C2CC2)NC(=O)[C@@H]2C[C@@H](Oc3nc(OC)cc4ccccc34)CN2C(=O)[C@H]1NC(=O)OC(C)(C)C(F)(F)F` [Compound 6002, 1,1,1-trifluoro-2-methylpropan-2-yl((2R,6S,7R,9S,13aS,14aR,16aS,Z)-14a-((cyclopropylsulfonyl)carbamoyl)-7-ethyl-2-((3-methoxyisoquinolin-1-yl)oxy)-9-methyl-5,16-dioxo-1,2,3,5,6,7,8,9,10,11,13a,14,14a,15,16,16a-hexadecahydrocyclopropa[e]pyrrolo[1,2-a][1,4]diazacyclopentadecin-6-yl)carbamate], the EC50 in assay [1] (read-out: LE_1b (EC50, range)) was < 5.46 nM; in assay [2] (read-out: LE_1a (EC50, range)), 4.82 to 103 nM.
Consider `CC[C@@H]1C[C@H](C)CC/C=C\[C@@H]2C[C@@]2(C(=O)NS(=O)(=O)C2CC2)NC(=O)[C@@H]2C[C@@H](Oc3nc(OC)cc4ccccc34)CN2C(=O)[C@H]1NC(=O)OC(C)(C)C(F)(F)F` [Compound 6003, 1,1,1-trifluoro-2-methylpropan-2-yl((2R,6S,7R,9R,13aS,14aR,16aS,Z)-14a-((cyclopropylsulfonyl)carbamoyl)-7-ethyl-2-((3-methoxyisoquinolin-1-yl)oxy)-9-methyl-5,16-dioxo-1,2,3,5,6,7,8,9,10,11,13a,14,14a,15,16,16a-hexadecahydrocyclopropa[e]pyrrolo[1,2-a][1,4]diazacyclopentadecin-6-yl)carbamate], for which the EC50 in assay [1] (read-out: LE_1b (EC50)) was 0.22 nM; in assay [1] (read-out: LE_1b (EC50, range)), < 5.46 nM; in assay [2] (read-out: LE_1a (EC50)) it was 1.33 nM; in assay [2] (read-out: LE_1a (EC50, range)), < 5.46 nM.
With `CC[C@@H]1C[C@@H](C)CC/C=C\[C@@H]2C[C@@]2(C(=O)NS(=O)(=O)C2(C)CC2)NC(=O)[C@@H]2C[C@@H](Oc3nc(OC)cc4ccccc34)CN2C(=O)[C@H]1NC(=O)OC(C)(C)C` [Compound 6004, tert-butyl ((2R,6S,7R,9S,13aS,14aR,16aS,Z)-7-ethyl-2-((3-methoxyisoquinolin-1-yl)oxy)-9-methyl-14a-(((1-methylcyclopropyl)sulfonyl)carbamoyl)-5,16-dioxo-1,2,3,5,6,7,8,9,10,11,13a,14,14a,15,16,16a-hexadecahydrocyclopropa[e]pyrrolo[1,2-a][1,4]diazacyclopentadecin-6-yl)carbamate], the EC50 is < 5.46 nM in assay [1] (read-out: LE_1b (EC50, range)) and 4.82 to 103 nM in assay [2] (read-out: LE_1a (EC50, range)).
